Test systems include 786-0; A549; CAKI-1; COLO 205; DU-145; HL-60; HT-29; K562; M14; NCI/ADR-RES; OVCAR-4; OVCAR-8; PC-3; SF-268; SK-OV-3; TK-10; UACC-257; UACC-62; HCC 2998.
Common to all, as to assay: inhibition of tumour cell growth, NCI panel, 48 h

Each structure is given as a SMILES string.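 Following 48 hours of exposure in 96-well plates, responses at five concentrations were used to interpolate endpoints linearly. GI50 marks 50% less growth.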 Calls of active or inactive are those of the source. Cut-off read from the data, not from the text of the source: active = GI50 up to about 1.1 µM and inactive = higher.

Take `NC(=O)C1CCCN1Cc1ccc2c(c1)OCO2` (centres undefined): the GI50 in the experiment on 786-0, in the experiment with A549, in the experiment with CAKI-1, with COLO 205, in the experiment on DU-145 and with HL-60 was > 100 µM (inactive) each time. For the same compound, the GI50 in the experiment on HT-29, in the experiment with K562, in the experiment on M14, in the experiment on NCI/ADR-RES, in the experiment with OVCAR-4 and in the experiment on OVCAR-8 was > 100 µM (inactive) in each case. For the same compound, the GI50 with PC-3, in the experiment on SF-268, in the experiment on SK-OV-3, in the experiment with TK-10, with UACC-257 and in the experiment with UACC-62 was > 100 µM (inactive) in each case.
In the case of `CCOC(=O)CCC(NC(=O)c1ccc(CNc2nc3ccccc3nc2C(=O)OCC)cc1)C(=O)OCC` (centres undefined), the GI50 in the experiment on 786-0, in the experiment on A549, with COLO 205, in the experiment on DU-145, with HT-29 and with K562 was > 100 µM (inactive) in each case. The GI50 with M14, in the experiment on NCI/ADR-RES, in the experiment with OVCAR-8, in the experiment on PC-3, in the experiment with SF-268 and in the experiment with SK-OV-3 was > 100 µM (inactive) in each case. The GI50 in the experiment on TK-10 and in the experiment on UACC-62 was > 100 µM (inactive) in each case.
As to `Cc1ccc(S(=O)(=O)NC(=O)NC(Cc2ccc(O)c(O)c2)C(=O)O)cc1` (centres undefined), the GI50 with 786-0 is 20.4 µM (inactive); in the experiment with A549 it was > 100 µM (inactive); in the experiment with CAKI-1 it was > 100 µM (inactive); in the experiment on COLO 205 it was > 100 µM (inactive); in the experiment with DU-145 it was > 100 µM (inactive); in the experiment with HL-60, > 100 µM (inactive). The GI50 in the experiment with HT-29 is > 100 µM (inactive); in the experiment on K562, 37.1 µM (inactive); in the experiment with M14, > 100 µM (inactive); in the experiment on NCI/ADR-RES, > 100 µM (inactive); in the experiment with OVCAR-4, > 100 µM (inactive); with OVCAR-8 it was 81.8 µM (inactive). In addition, the GI50 in the experiment with PC-3 is > 100 µM (inactive); in the experiment with SF-268, 0.745 µM (active); in the experiment on TK-10, > 100 µM (inactive); with UACC-257 it was > 100 µM (inactive); in the experiment with UACC-62, > 100 µM (inactive).
As for `O=C(CC(C(=O)c1cccs1)c1ccsc1)c1cccs1` (centres undefined), the GI50 is > 100 µM (inactive) with 786-0; 91 µM (inactive) in the experiment on A549; > 100 µM (inactive) with CAKI-1; 75.2 µM (inactive) in the experiment with COLO 205; > 100 µM (inactive) with DU-145; 83.9 µM (inactive) in the experiment on HCC 2998. Moreover, the GI50 was > 100 µM (inactive) in the experiment on HT-29; 37.8 µM (inactive) with K562; > 10 µM (inactive) with M14; 31.9 µM (inactive) with NCI/ADR-RES; 79.8 µM (inactive) in the experiment with OVCAR-4; > 100 µM (inactive) in the experiment on OVCAR-8. Also, the GI50 with PC-3 is 45.2 µM (inactive); with SF-268, > 100 µM (inactive); in the experiment on SK-OV-3, 61.9 µM (inactive); in the experiment on TK-10, > 100 µM (inactive); with UACC-257 it was > 100 µM (inactive); with UACC-62, 62.1 µM (inactive).
Take `CC1(C)C2CCC1(C)C(NC(=O)CCN1CCOCC1)C2` (centres undefined): the GI50 with 786-0, with A549, in the experiment on CAKI-1, in the experiment with COLO 205, in the experiment with DU-145 and with HCC 2998 was > 100 µM (inactive) each time. Further, the GI50 with HL-60, in the experiment on HT-29, with K562, in the experiment on M14, in the experiment on OVCAR-4 and in the experiment on OVCAR-8 was > 100 µM (inactive) each time. The GI50 in the experiment on PC-3, with SF-268, in the experiment on SK-OV-3, in the experiment with TK-10, in the experiment with UACC-257 and in the experiment with UACC-62 was > 100 µM (inactive) each time.
`COc1ccc(CC(=O)N2CCC3(C)CC(=O)CC=C23)cc1OC` (centres undefined): the GI50 in the experiment with 786-0, in the experiment on A549, in the experiment on CAKI-1, with COLO 205, with DU-145 and in the experiment on HL-60 was > 100 µM (inactive) in each case. Moreover, the GI50 with HT-29, in the experiment on K562, in the experiment on M14, in the experiment with NCI/ADR-RES, in the experiment with OVCAR-4 and with OVCAR-8 was > 100 µM (inactive) throughout. Also, the GI50 with PC-3 is > 100 µM (inactive); in the experiment with SF-268 it was > 100 µM (inactive); in the experiment with SK-OV-3, > 100 µM (inactive); in the experiment with TK-10, < 0.01 µM (active); in the experiment with UACC-62 it was > 100 µM (inactive).
Consider `C=Cc1c(C)c2cc3nc(c4c5[nH]c(cc6nc(cc1[nH]2)C(C)=C6CC)c(C)c5C(=O)C4C(=O)OC)C(CCC(=O)OC)C3C` (centres undefined), for which the GI50 was > 100 µM (inactive) with 786-0; > 100 µM (inactive) in the experiment with A549; > 100 µM (inactive) in the experiment with CAKI-1; > 100 µM (inactive) in the experiment on COLO 205; 40.4 µM (inactive) in the experiment on DU-145; 59.7 µM (inactive) in the experiment on HCC 2998. Also, the GI50 with HL-60, in the experiment with HT-29, with K562, in the experiment with M14, with OVCAR-4 and with OVCAR-8 was > 100 µM (inactive) each time. Besides, the GI50 in the experiment on PC-3, in the experiment with SF-268, in the experiment with SK-OV-3, in the experiment on TK-10, in the experiment with UACC-257 and in the experiment with UACC-62 was > 100 µM (inactive) throughout.
In the case of `O=C(c1cccnc1)N1N=C(c2ccccc2)CC1(O)c1cc(F)c(Cl)cc1Cl` (centres undefined), the GI50 was 22.1 µM (inactive) in the experiment with 786-0; 27.6 µM (inactive) in the experiment on A549; 33.3 µM (inactive) with CAKI-1; 14.1 µM (inactive) in the experiment on COLO 205; 32.1 µM (inactive) with DU-145; 21.4 µM (inactive) with HL-60. The GI50 in the experiment with HT-29 is 19.6 µM (inactive); in the experiment with K562, 21.4 µM (inactive); in the experiment with M14, 22 µM (inactive); in the experiment on NCI/ADR-RES, 23.5 µM (inactive); in the experiment on OVCAR-4 it was 27 µM (inactive); with OVCAR-8, 25.5 µM (inactive). In addition, the GI50 is 20.5 µM (inactive) with PC-3; 30.5 µM (inactive) in the experiment on SF-268; 23.7 µM (inactive) in the experiment on SK-OV-3; 41 µM (inactive) in the experiment with TK-10; 18.6 µM (inactive) with UACC-257.
Consider `CCOC(=O)c1cn2c(n1)sc1cc(OC)ccc12`, for which the GI50 with 786-0 is 6.21 µM (inactive); with A549, 7.38 µM (inactive); in the experiment with CAKI-1, 13.5 µM (inactive); in the experiment with COLO 205, 3.4 µM (inactive); in the experiment with DU-145, 4.07 µM (inactive); in the experiment with HCC 2998, 31 µM (inactive). Moreover, the GI50 in the experiment on HT-29 is 2.82 µM (inactive); with K562, 3.75 µM (inactive); in the experiment with M14, 5.28 µM (inactive); in the experiment with NCI/ADR-RES, 19.5 µM (inactive); with OVCAR-4, > 100 µM (inactive); with OVCAR-8, 6.21 µM (inactive). Moreover, the GI50 is 15.2 µM (inactive) in the experiment on PC-3; 27.4 µM (inactive) in the experiment with SF-268; 30.1 µM (inactive) with SK-OV-3; > 100 µM (inactive) in the experiment on TK-10; 80.9 µM (inactive) in the experiment on UACC-257; 8.63 µM (inactive) in the experiment with UACC-62.
On to `CC(C)=CCC/C(C)=C/CC/C(C)=C/CC/C(C)=C/CC/C(C)=C\CC/C(C)=C/CC/C(C)=C/CC/C(C)=C/Cc1cc(O)ccc1O`, for which the GI50 is 1.45 µM (inactive) in the experiment with 786-0; 1.33 µM (inactive) in the experiment with A549; 0.239 µM (active) in the experiment with CAKI-1; 0.387 µM (active) with COLO 205; 19.4 µM (inactive) with DU-145; 4.99 µM (inactive) with HCC 2998. In addition, the GI50 with HT-29 is 1.11 µM (active); in the experiment with K562, 3.18 µM (inactive); in the experiment on M14, 0.213 µM (active); in the experiment with NCI/ADR-RES, 0.459 µM (active); in the experiment on OVCAR-4, 1.32 µM (inactive); in the experiment with OVCAR-8 it was 1.15 µM (inactive). Besides, the GI50 with PC-3 is 0.689 µM (active); in the experiment with SF-268, 2.01 µM (inactive); in the experiment on SK-OV-3, 4.06 µM (inactive); in the experiment with TK-10 it was 1.41 µM (inactive); with UACC-257, 0.387 µM (active); in the experiment with UACC-62, 0.157 µM (active).
Turning to `CN/C(=N\n1cnnc1)OC`, the GI50 in the experiment with 786-0, in the experiment on A549, with CAKI-1, in the experiment on COLO 205, with DU-145 and in the experiment with HCC 2998 was > 100 µM (inactive) in each case. In addition, the GI50 in the experiment on HT-29, with K562, in the experiment on M14, in the experiment on NCI/ADR-RES, in the experiment with OVCAR-4 and in the experiment on OVCAR-8 was > 100 µM (inactive) in each case. Besides, the GI50 in the experiment on PC-3, with SK-OV-3, in the experiment on UACC-257 and with UACC-62 was > 100 µM (inactive) in each case.

These data come from ChEMBL document CHEMBL1201862, “PubChem BioAssay data set” (2004).
